Experimental data taken from patent US6060448A, “Casein fragments having growth promoting activity” (Pepsyn Limited, priority 1995, dated 2000).

Tested on: Rama 27 cells
Test: incorporation of [3H] thymidine into the DNA of Rama 27 cells (growth promoting / mitogenic assay)
Assay type: cell-based
Conditions: Rama 27 rat mammary fibroblast cell line
Protocol: The growth promoting activity of different milk types was determined by precipitating caseins and assaying the supernatants for their ability to stimulate the incorporation of [3H] thymidine into the DNA of Rama 27 cells by known methodology (Smith et al, 1984).
The protein fractions A,B,C, of the casein digest where assayed for their ability to stimulate the incorporation of [3H] thymidine into the DNA of Rama 27 cells exactly as described previously.
In table 1, * indicates one unit of activity is defined as the amount of protein required to produce half maximal stimulation compared with 1% FCS when added to R27 cells.

Question: Which “growth promoting activity (incorporation of 3H-thymidine into DNA)” value does the source give for PDGF here?
Answer: The value was “not significantly stimulated”.
